In experiment [1] the target is T1, BACE1 (Homo sapiens (Human), UniProt P56817). In words: In vitro enzymatic BACE1 FRET assay. The format is biochemical. The note with it: read-out: BACE1 Enzyme IC50.
Target sequence in this assay (P56817 46-501): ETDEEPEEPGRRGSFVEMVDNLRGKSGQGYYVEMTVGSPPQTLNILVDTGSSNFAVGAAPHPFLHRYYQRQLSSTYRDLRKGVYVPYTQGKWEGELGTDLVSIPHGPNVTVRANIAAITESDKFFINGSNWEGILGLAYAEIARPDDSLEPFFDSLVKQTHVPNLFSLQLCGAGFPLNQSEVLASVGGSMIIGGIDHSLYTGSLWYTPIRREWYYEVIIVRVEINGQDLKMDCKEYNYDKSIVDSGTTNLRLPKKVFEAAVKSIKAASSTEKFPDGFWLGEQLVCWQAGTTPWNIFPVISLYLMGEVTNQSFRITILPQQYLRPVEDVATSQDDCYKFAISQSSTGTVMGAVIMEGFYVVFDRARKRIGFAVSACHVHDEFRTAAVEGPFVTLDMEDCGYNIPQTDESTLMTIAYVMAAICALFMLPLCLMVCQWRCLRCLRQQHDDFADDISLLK
For experiment [2], the target named is T1, BACE1. In words: In vitro BACE1 cell-based assay (Aβ40 in conditioned medium of cells stably expressing APP, HTRF). (In general: Time-resolved FRET reads energy transfer from a long-lived donor to a nearby acceptor.)
Target sequence in this assay (P56817 46-501, species assumed): as the sequence (P56817 46-501) above
The target of experiment [3] is Cathepsin D (CatD) (Homo sapiens (Human), UniProt P07339). Nature of the experiment: In vitro enzymatic Cathepsin D (CatD) FRET assay. The class given is biochemical. The following applies: read-out: Cat D Enzyme IC50.
Chain of Cathepsin D (CatD) (P07339 65-412, species assumed): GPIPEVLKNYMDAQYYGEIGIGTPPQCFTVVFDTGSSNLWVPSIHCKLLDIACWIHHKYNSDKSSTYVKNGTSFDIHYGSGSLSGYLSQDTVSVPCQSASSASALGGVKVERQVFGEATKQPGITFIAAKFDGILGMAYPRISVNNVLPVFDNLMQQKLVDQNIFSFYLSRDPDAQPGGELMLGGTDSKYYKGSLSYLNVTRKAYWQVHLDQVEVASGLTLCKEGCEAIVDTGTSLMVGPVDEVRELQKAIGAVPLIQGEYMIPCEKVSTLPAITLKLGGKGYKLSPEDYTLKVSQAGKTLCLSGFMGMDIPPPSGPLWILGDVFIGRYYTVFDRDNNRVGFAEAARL
The target of experiment [4] is human recombinant BACE2 (Homo sapiens (Human), UniProt Q9Y5Z0). Nature of the experiment: In vitro enzymatic BACE2 FRET assay. The format is biochemical. The note with it: read-out: BACE2 Enzyme IC50.
Chain of human recombinant BACE2 (Q9Y5Z0 63-518): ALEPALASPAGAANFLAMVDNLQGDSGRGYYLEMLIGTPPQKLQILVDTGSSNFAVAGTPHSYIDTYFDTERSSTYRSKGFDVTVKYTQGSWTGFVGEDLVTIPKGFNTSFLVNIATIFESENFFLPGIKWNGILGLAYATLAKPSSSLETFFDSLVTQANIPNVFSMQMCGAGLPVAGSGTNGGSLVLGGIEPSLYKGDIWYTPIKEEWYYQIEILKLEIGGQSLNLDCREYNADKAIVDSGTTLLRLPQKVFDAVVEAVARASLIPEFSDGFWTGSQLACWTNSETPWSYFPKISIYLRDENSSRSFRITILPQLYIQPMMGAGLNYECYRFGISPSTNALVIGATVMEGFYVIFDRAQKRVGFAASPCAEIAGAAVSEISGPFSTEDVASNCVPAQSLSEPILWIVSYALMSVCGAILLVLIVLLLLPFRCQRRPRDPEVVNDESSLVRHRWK
Setting [5] is: Aβ40 in conditioned media after 24 h incubation.

Drawing on US11021493B2, “1,4-thiazine dioxide and 1,2,4-thiadiazine dioxide derivatives as beta-secretase inhibitors and methods of use” (AMGEN INC., priority 2016, dated 2021), this text covers IC50 for 22 molecules.

Counter-ions that a name gives are not always drawn. Bounds are passed on as bounds.

For orientation: IC50 means the concentration that inhibits the measured activity by half.

With `C#CCOc1cnc(/C(F)=C/c2ccc(F)c([C@]3(C)CS(=O)(=O)C(C)(C)C(N)=N3)c2)cn1` [Example 123, (R,Z)-5-amino-3-(2-fluoro-5-(2-fluoro-2-(5-(prop-2-yn-1-yloxy)pyrazin-2-yl)vinyl)phenyl)-3,6,6-trimethyl-3,6-dihydro-2H-1,4-thiazine 1,1-dioxide], the IC50 worked out at 1 nM in experiment [1] and 3 nM in experiment [2].
As to `CC1(C)C(N)=N[C@](C)(c2cc(/C=C(\F)c3cnc(O)cn3)ccc2F)CS1(=O)=O` [Example 140, (R,Z)-5-amino-3-(2-fluoro-5-(2-fluoro-2-(5-hydroxypyrazin-2-yl)vinyl)phenyl)-3,6,6-trimethyl-3,6-dihydro-2H-1,4-thiazine 1,1-dioxide], the IC50 in experiment [3] came to 177000 nM; in experiment [4], 203 nM; in experiment [2] (setting [5]) it was 241 nM.
`CC1(C)C(N)=N[C@](C)(c2cc(/C=C(\F)c3cnc(Cl)cn3)ccc2F)CS1(=O)=O` [Example 159, (R,Z)-5-amino-3-(5-(2-(5-chloropyrazin-2-yl)-2-fluorovinyl)-2-fluorophenyl)-3,6,6-trimethyl-3,6-dihydro-2H-1,4-thiazine 1,1-dioxide]: the results for the IC50 in experiment [3] and in experiment [4] were 143000 nM and 3 nM, respectively.
As to `CC#CCOc1cnc(/C(F)=C/c2cc(F)c(F)c([C@]3(C)CS(=O)(=O)N(C)C(N)=N3)c2)cn1` [Example 165, (R,Z)-3-amino-5-(5-(2-(5-(but-2-yn-1-yloxy)pyrazin-2-yl)-2-fluorovinyl)-2,3-difluorophenyl)-2,5-dimethyl-5,6-dihydro-2H-1,2,4-thiadiazine 1,1-dioxide], the results for the IC50 in experiment [3] and in experiment [4] were 18200 nM and 47 nM, respectively.
On to `C#C[C@H](C)Oc1cnc(/C(F)=C/c2cc(F)c(F)c([C@]3(C)CS(=O)(=O)N(C)C(N)=N3)c2)cn1` [Example 167, (R)-3-amino-5-(5-((Z)-2-(5-((S)-but-3-yn-2-yloxy)pyrazin-2-yl)-2-fluorovinyl)-2,3-difluorophenyl)-2,5-dimethyl-5,6-dihydro-2H-1,2,4-thiadiazine 1,1-dioxide hydrochloride], for which the IC50 turned out to be 32500 nM in experiment [3], 290 nM in experiment [4] and 11 nM in experiment [2] (setting [5]).
In the case of `CC#CCOc1cnc(/C(F)=C/c2ccc(F)c([C@]3(C)CS(=O)(=O)N(C)C(N)=N3)c2)cn1` [Example 168, (R,Z)-3-amino-5-(5-(2-(5-(but-2-yn-1-yloxy)pyrazin-2-yl)-2-fluorovinyl)-2-fluorophenyl)-2,5-dimethyl-5,6-dihydro-2H-1,2,4-thiadiazine 1,1-dioxide], the IC50 in experiment [3] amounted to 25400 nM; in experiment [4], 10 nM.
Turning to `CN1C(N)=N[C@](C)(c2cc(/C=C(\F)c3cnc(OCC4CCC4)cn3)ccc2F)CS1(=O)=O` [Example 174, (R,Z)-3-amino-5-(5-(2-(5-(cyclobutylmethoxy)pyrazin-2-yl)-2-fluorovinyl)-2-fluorophenyl)-2,5-dimethyl-5,6-dihydro-2H-1,2,4-thiadiazine 1,1-dioxide], the IC50 is 22000 nM in experiment [3], 113 nM in experiment [4] and 1400 nM in experiment [2] (setting [5]).
In the case of `CN1C(N)=N[C@](C)(c2cc(/C=C(\F)c3cnc(C#N)cn3)ccc2F)C(C)(C)S1(=O)=O` [Example 181, (R,Z)-5-(2-(3-(3-amino-2,5,6,6-tetramethyl-1,1-dioxido-5,6-dihydro-2H-1,2,4-thiadiazin-5-yl)-4-fluorophenyl)-1-fluorovinyl)pyrazine-2-carbonitrile], the IC50 in experiment [3] amounted to 178000 nM; in experiment [4], 87 nM.
As for `CC1(C)C(N)=N[C@](C)(c2cc(/C=C(\F)c3cnc(OCC4CC4)cn3)ccc2F)CS1(=O)=O` [Example 206, (R,Z)-5-amino-3-(5-(2-(5-(cyclopropylmethoxy)pyrazin-2-yl)-2-fluorovinyl)-2-fluorophenyl)-3,6,6-trimethyl-3,6-dihydro-2H-1,4-thiazine 1,1-dioxide], the IC50 stood at 74700 nM in experiment [3] and 139 nM in experiment [4].
For `CN1C(N)=N[C@](C)(c2cc(/C=C(\F)c3cnc(OCc4cscn4)cn3)cc(F)c2F)CS1(=O)=O` [Example 220, (R,Z)-3-amino-5-(2,3-difluoro-5-(2-fluoro-2-(5-(thiazol-4-ylmethoxy)pyrazin-2-yl)vinyl)phenyl)-2,5-dimethyl-5,6-dihydro-2H-1,2,4-thiadiazine 1,1-dioxide], in that order: 32200 nM and 66 nM.
Consider `Cc1cc(COc2cnc(/C(F)=C/c3cc(F)c(F)c([C@]4(C)CS(=O)(=O)N(C)C(N)=N4)c3)cn2)no1` [Example 223, (R,Z)-3-amino-5-(2,3-difluoro-5-(2-fluoro-2-(5-((5-methylisoxazol-3-yl)methoxy)pyrazin-2-yl)vinyl)phenyl)-2,5-dimethyl-5,6-dihydro-2H-1,2,4-thiadiazine 1,1-dioxide], for which the IC50 in experiment [3] stood at 22300 nM; in experiment [4], 210 nM.
For `Cc1noc(COc2cnc(/C(F)=C/c3cc(F)c(F)c([C@]4(C)CS(=O)(=O)N(C)C(N)=N4)c3)cn2)n1` [Example 224, (R,Z)-3-amino-5-(2,3-difluoro-5-(2-fluoro-2-(5-((3-methyl-1,2,4-oxadiazol-5-yl)methoxy)pyrazin-2-yl)vinyl)phenyl)-2,5-dimethyl-5,6-dihydro-2H-1,2,4-thiadiazine 1,1-dioxide], the IC50 in experiment [3] was 74800 nM; in experiment [4], 421 nM.
On to `CN1C(N)=N[C@](C)(c2cc(/C=C(\F)c3cnc(OCc4cocn4)cn3)cc(F)c2F)CS1(=O)=O` [Example 225, (R,Z)-3-amino-5-(2,3-difluoro-5-(2-fluoro-2-(5-(oxazol-4-ylmethoxy)pyrazin-2-yl)vinyl)phenyl)-2,5-dimethyl-5,6-dihydro-2H-1,2,4-thiadiazine 1,1-dioxide], for which the IC50 in experiment [3] was 69800 nM; in experiment [4], 84 nM.
In the case of `CN1C(N)=N[C@](C)(c2cc(/C=C(\F)c3cnc(OCc4ncccn4)cn3)cc(F)c2F)CS1(=O)=O` [Example 228, (R,Z)-3-amino-5-(2,3-difluoro-5-(2-fluoro-2-(5-(pyrimidin-2-ylmethoxy)pyrazin-2-yl)vinyl)phenyl)-2,5-dimethyl-5,6-dihydro-2H-1,2,4-thiadiazine 1,1-dioxide], the IC50 was 39500 nM in experiment [3] and 266 nM in experiment [4].
For the molecule `Cc1nc(COc2cnc(/C(F)=C/c3cc(F)c(F)c([C@]4(C)CS(=O)(=O)N(C)C(N)=N4)c3)cn2)no1` [Example 229, (R,Z)-3-amino-5-(2,3-difluoro-5-(2-fluoro-2-(5-((5-methyl-1,2,4-oxadiazol-3-yl)methoxy)pyrazin-2-yl)vinyl)phenyl)-2,5-dimethyl-5,6-dihydro-2H-1,2,4-thiadiazine 1,1-dioxide], the results for the IC50 in experiment [3] and in experiment [4] were 68200 nM and 257 nM, respectively.
Regarding `Cc1nnc(COc2cnc(/C(F)=C/c3cc(F)c(F)c([C@]4(C)CS(=O)(=O)N(C)C(N)=N4)c3)cn2)o1` [Example 233, (R,Z)-3-amino-5-(2,3-difluoro-5-(2-fluoro-2-(5-((5-methyl-1,3,4-oxadiazol-2-yl)methoxy)pyrazin-2-yl)vinyl)phenyl)-2,5-dimethyl-5,6-dihydro-2H-1,2,4-thiadiazine 1,1-dioxide], the IC50 in experiment [3] was 51700 nM; in experiment [4] it was 621 nM.
Turning to `Cc1csc(COc2cnc(/C(F)=C/c3cc(F)c(F)c([C@]4(C)CS(=O)(=O)N(C)C(N)=N4)c3)cn2)n1` [Example 237, (R,Z)-3-amino-5-(2,3-difluoro-5-(2-fluoro-2-(5-((4-methylthiazol-2-yl)methoxy)pyrazin-2-yl)vinyl)phenyl)-2,5-dimethyl-5,6-dihydro-2H-1,2,4-thiadiazine 1,1-dioxide], the IC50 was 25400 nM in experiment [3] and 103 nM in experiment [4].
On to `Cc1nc(COc2cnc(/C(F)=C/c3cc(F)c(F)c([C@]4(C)CS(=O)(=O)N(C)C(N)=N4)c3)cn2)c(C)o1` [Example 238, (R,Z)-3-amino-5-(5-(2-(5-((2,5-dimethyloxazol-4-yl)methoxy)pyrazin-2-yl)-2-fluorovinyl)-2,3-difluorophenyl)-2,5-dimethyl-5,6-dihydro-2H-1,2,4-thiadiazine 1,1-dioxide], for which the IC50 in experiment [3] worked out at 46800 nM; in experiment [4], 94 nM.
`CCOC(=O)COc1cnc(/C(F)=C/c2cc(F)c(F)c([C@]3(C)CS(=O)(=O)N(C)C(N)=N3)c2)cn1` [Example 243, (R,Z)-ethyl 2-((5-(2-(3-(3-amino-2,5-dimethyl-1,1-dioxido-5,6-dihydro-2H-1,2,4-thiadiazin-5-yl)-4,5-difluorophenyl)-1-fluorovinyl)pyrazin-2-yl)oxy)acetate]: the IC50 in experiment [3] amounted to 90300 nM; in experiment [4] it was 398 nM.
For the molecule `Cc1cnc(COc2cnc(/C(F)=C/c3cc(F)c(F)c([C@]4(C)CS(=O)(=O)N(C)C(N)=N4)c3)cn2)o1` [Example 246, (R,Z)-3-amino-5-(2,3-difluoro-5-(2-fluoro-2-(5-((5-methyloxazol-2-yl)methoxy)pyrazin-2-yl)vinyl)phenyl)-2,5-dimethyl-5,6-dihydro-2H-1,2,4-thiadiazine 1,1-dioxide], the IC50 in experiment [3] stood at 34900 nM; in experiment [4] it was 111 nM.
Take `CN1C(N)=N[C@](C)(c2cc(/C=C(\F)c3cnc(OCc4nccn4C)cn3)cc(F)c2F)CS1(=O)=O` [Example 249, (R,Z)-3-amino-5-(2,3-difluoro-5-(2-fluoro-2-(5-((1-methyl-1H-imidazol-2-yl)methoxy)pyrazin-2-yl)vinyl)phenyl)-2,5-dimethyl-5,6-dihydro-2H-1,2,4-thiadiazine 1,1-dioxide]: the IC50 was over 400000 nM in experiment [3] and 1820 nM in experiment [4].
Take `CN1C(N)=N[C@](C)(c2cc(/C=C(\F)c3cc4nccnc4cn3)ccc2F)CS1(=O)=O` [Example 250, (5R)-5-(2-fluoro-5-((Z)-2-fluoro-2-(pyrido[3,4-b]pyrazin-7-yl)ethenyl)phenyl)-2,5-dimethyl-5,6-dihydro-2H-1,2,4-thiadiazin-3-amine 1,1-dioxide]: the IC50 in experiment [3] was over 400000 nM.
